This passage reports IC50 results from patent publication US10590105B2, “1,3-dihydroxy-phenyl derivatives useful as immunomodulators” (BRISTOL-MYERS SQUIBB COMPANY, priority 2016, dated 2020).

What is called IC50 is the concentration that gives 50% inhibition.

Sequence of PD-1/PD-L1 interaction (PD-1-Ig / PD-L1-His) (Q9NZQ7 other isoform, or with tags, fused parts or gaps): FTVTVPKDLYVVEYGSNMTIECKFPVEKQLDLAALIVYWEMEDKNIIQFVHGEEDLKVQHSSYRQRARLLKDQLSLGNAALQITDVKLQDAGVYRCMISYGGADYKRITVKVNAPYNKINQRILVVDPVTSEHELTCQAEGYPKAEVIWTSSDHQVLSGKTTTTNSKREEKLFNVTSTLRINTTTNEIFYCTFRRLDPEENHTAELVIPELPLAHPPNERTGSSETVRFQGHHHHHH

For the assay, the target named is PD-1/PD-L1 interaction (PD-1-Ig / PD-L1-His) (Homo sapiens (Human), UniProt Q9NZQ7). Description: PD-1/PD-L1 Homogenous Time-Resolved Fluorescence (HTRF) binding assay. The following applies: PD-1/PD-L1 HTRF binding assay; value given as range class; read-out: Range or IC50. The source says:
The ability of the compounds of formula (I) to bind to PD-L1 was investigated using a PD-1/PD-L1 Homogenous Time-Resolved Fluorescence (HTRF) binding assay.
Homogenous Time-Resolved Fluorescence (HTRF) Binding Assay.
The interaction of PD-1 and PD-L1 can be assessed using soluble, purified preparations of the extracellular domains of the two proteins. The PD-1 and PD-L1 protein extracellular domains were expressed as fusion proteins with detection tags, for PD-1, the tag was the Fc portion of Immunoglobulin (PD-1-Ig) and for PD-L1 it was the 6 histidine motif (PD-L1-His). All binding studies were performed in an HTRF assay buffer consisting of dPBS supplemented with 0.1% […] bovine serum albumin and 0.05% (v/v) Tween-20. For the h/PD-L1-His binding assay, inhibitors were pre-incubated with PD-L1-His (10 nM final) for 15 m in 4 μl of assay buffer, followed by addition of PD-1-Ig (20 nM final) in 1 μl of assay buffer and further incubation for 15 m. HTRF detection was achieved using europium crypate-labeled anti-Ig (1 nM final) and allophycocyanin (APC) labeled anti-His (20 nM final). Antibodies were diluted in HTRF detection buffer and 5 μl was dispensed on top of the binding reaction. The reaction mixture was allowed to equilibrate for 30 minutes and the resulting signal (665 nm/620 nm ratio) was obtained using an EnVision fluorometer. Additional binding assays were established between the human proteins PD-1-Ig/PD-L2-His (20 & 5 nM, respectively) and CD80-His/PD-L1-Ig (100 & 10 nM, respectively).
Recombinant Proteins. Human PD-1 (25-167) with a C-terminal human Fc domain of immunoglobulin G (Ig) epitope tag [hPD-1 (25-167)-3S-IG] and human PD-L1 (18-239) with a C-terminal His epitope tag [hPD-L1(18-239)-TVMV-His] were expressed in HEK293T cells and purified sequentially by ProteinA affinity chromatography and size exclusion chromatography. Human PD-L2-His and CD80-His was obtained through commercial sources.
Ranges are as follows: A=0.001 to 0.010 micromolar; B=0.011 to 0.150 micromolar; C=0.151 to 10 micromolar.
A general note: TR-FRET usually uses a lanthanide donor and a delayed reading to cut background.
Regarding `Cc1c(COc2cc(OCc3cncc(C#N)c3)c(C=O)cc2Cl)cccc1-c1ccc2oc(CCN3CC[C@@H](O)C3)nc2c1` [Example 1027, (R)-5-((4-chloro-2-formyl-5-((3-(2-(2-(3-hydroxypyrrolidin-1-yl)ethyl)benzo[d]oxazol-5-yl)-2-methylbenzyl)oxy)phenoxy)methyl)nicotinonitrile], the IC50 is 151 to 10000 nM. The result for `CCC(CO)(CO)NCc1cc(Cl)c(OCc2nccc(-c3cccc(OCCCN4CC[C@@H](O)C4)c3C)c2C)cc1OCc1cncc(C#N)c1` [Example 2013, (R)-5-((4-chloro-2-(((1-hydroxy-2-(hydroxymethyl)butan-2-yl)amino)methyl)-5-((4-(3-(3-(3-hydroxypyrrolidin-1-yl)propoxy)-2-methylphenyl)-3-methylpyridin-2-yl)methoxy)phenoxy)methyl)nicotinonitrile] reads 1 to 10 nM; that for `Cc1nn(-c2cccc(COc3cc(OCc4cncc(C#N)c4)c(CN[C@](C)(CO)C(=O)O)cc3Cl)c2C)c(C)c1CN1CC[C@@H](O)C1` [Example 2009, (R)-2-((5-chloro-2-((5-cyanopyridin-3-yl)methoxy)-4-((3-(4-(((R)-3-hydroxypyrrolidin-1-yl)methyl)-3,5-dimethyl-1H-pyrazol-1-yl)-2-methylbenzyl)oxy)benzyl)amino)-3-hydroxy-2-methylpropanoic acid], 151 to 10000 nM.

For the compound `Cc1c(COc2cc(OCc3cncc(C#N)c3)c(CN[C@](C)(CO)C(=O)O)cc2Cl)cccc1-c1cccn(CCCN2CC[C@@H](O)C2)c1=O` [Example 1038, (R)-2-((5-chloro-2-((5-cyanopyridin-3-yl)methoxy)-4-((3-(1-(3-((R)-3-hydroxypyrrolidin-1-yl)propyl)-2-oxo-1,2-dihydropyridin-3-yl)-2-methylbenzyl)oxy)benzyl)amino)-3-hydroxy-2-methylpropanoic acid], the IC50 was in the range of 151 to 10000 nM. The result for `Cc1c(COc2cc(OCc3cncc(C#N)c3)c(CN[C@](C)(CO)C(=O)O)cc2Cl)cccc1-c1ccc2cnccc2c1` [Example 1009, (R)-2-((5-chloro-2-((5-cyanopyridin-3-yl)methoxy)-4-((3-(isoquinolin-6-yl)-2-methylbenzyl)oxy)benzyl)amino)-3-hydroxy-2-methylpropanoic acid] reads 11 to 150 nM; that for `Cc1c(COc2cc(OCc3cncc(C#N)c3)c(CNC(C)(CO)CO)cc2Cl)cccc1-c1ccnc(OCCCN2CCCCC2)c1Cl` [Example 2001, 5-((4-chloro-5-((3-(3-chloro-2-(3-(piperidin-1-yl)propoxy)pyridin-4-yl)-2-methylbenzyl)oxy)-2-(((1,3-dihydroxy-2-methylpropan-2-yl)amino)methyl)phenoxy)methyl)nicotinonitrile], 1 to 10 nM; that for `Cc1c(COc2cc(OCc3cncc(C#N)c3)c(CNC(C)(CO)CO)cc2Cl)cccc1-c1nccc(OCCCN2CC[C@@H](O)C2)c1Cl` [Example 2002, (R)-5-((4-chloro-5-((3-(3-chloro-4-(3-(3-hydroxypyrrolidin-1-yl)propoxy)pyridin-2-yl)-2-methylbenzyl)oxy)-2-(((1,3-dihydroxy-2-methylpropan-2-yl)amino)methyl)phenoxy)methyl)nicotinonitrile], 1 to 10 nM. The result for `Cc1c(COc2cc(OCc3cncc(C#N)c3)c(CN3CCC[C@@]3(C)C(=O)O)cc2Cl)cccc1-c1ccc2scnc2c1` [Example 1023, (S)-1-(4-((3-(benzo[d]thiazol-5-yl)-2-methylbenzyl)oxy)-5-chloro-2-((5-cyanopyridin-3-yl)methoxy)benzyl)-2-methylpyrrolidine-2-carboxylic acid] reads 11 to 150 nM. Turning to `Cc1c(COc2cc(OCc3cncc(C#N)c3)c(CN[C@](C)(CO)C(=O)O)cc2Cl)cccc1-c1cnc2ccccc2c1` [Example 1002, (R)-2-((5-chloro-2-((5-cyanopyridin-3-yl)methoxy)-4-((2-methyl-3-(quinolin-3-yl)benzyl)oxy)benzyl)amino)-3-hydroxy-2-methylpropanoic acid], the IC50 lay within 151 to 10000 nM. For `Cc1c(OCCCN2CC[C@@H](O)C2)cccc1-c1ccnc(COc2cc(OCc3cncc(C#N)c3)c(CN[C@@](C)(CO)C(=O)O)cc2Cl)c1C` [Example 2012, (S)-2-((5-chloro-2-((5-cyanopyridin-3-yl)methoxy)-4-((4-(3-(3-((R)-3-hydroxypyrrolidin-1-yl)propoxy)-2-methylphenyl)-3-methylpyridin-2-yl)methoxy)benzyl)amino)-3-hydroxy-2-methylpropanoic acid] the value was 1 to 10 nM.

As to `Cc1c(COc2cc(OCc3cncc(C#N)c3)c(CN[C@](C)(CO)C(=O)O)cc2Cl)cccc1-c1ccc2ccccc2n1` [Example 1004, (R)-2-((5-chloro-2-((5-cyanopyridin-3-yl)methoxy)-4-((2-methyl-3-(quinolin-2-yl)benzyl)oxy)benzyl)amino)-3-hydroxy-2-methylpropanoic acid], the half-maximal inhibitory concentration (IC50) fell in the range of 151 to 10000 nM. The result for `Cc1c(COc2cc(OCc3cncc(C#N)c3)c(CNC(C)(CO)CO)cc2Cl)cncc1-c1cccc(OCCCN2CC[C@@H](O)C2)c1C` [Example 2008, (R)-5-((4-chloro-2-(((1,3-dihydroxy-2-methylpropan-2-yl)amino)methyl)-5-((5-(3-(3-(3-hydroxypyrrolidin-1-yl)propoxy)-2-methylphenyl)-4-methylpyridin-3-yl)methoxy)phenoxy)methyl)nicotinonitrile] reads 1 to 10 nM; that for `Cc1c(COc2cc(OCc3cncc(C#N)c3)c(CN3CCCC[C@H]3C(=O)O)cc2Cl)cccc1-c1ccc2ocnc2c1` [Example 1041, (S)-1-(4-((3-(benzo[d]oxazol-5-yl)-2-methylbenzyl)oxy)-5-chloro-2-((5-cyanopyridin-3-yl)methoxy)benzyl)piperidine-2-carboxylic acid], 1 to 10 nM; that for `Cc1c(COc2cc(OCc3cncc(C#N)c3)c(CN[C@](C)(CO)C(=O)O)cc2Cl)cccc1-c1ccc2scnc2c1` [Example 1021, (R)-2-((4-((3-(benzo[d]thiazol-5-yl)-2-methylbenzyl)oxy)-5-chloro-2-((5-cyanopyridin-3-yl)methoxy)benzyl)amino)-3-hydroxy-2-methylpropanoic acid], 1 to 10 nM. In the case of `Cc1c(COc2cc(OCc3cncc(C#N)c3)c(CN[C@@H](CCCNC(=N)N)C(=O)O)cc2Cl)cccc1-c1ccc2occc2c1` [Example 1014, (S)-2-((4-((3-(benzofuran-5-yl)-2-methylbenzyl)oxy)-5-chloro-2-((5-cyanopyridin-3-yl)methoxy)benzyl)amino)-5-guanidinopentanoic acid], the IC50 lay within 151 to 10000 nM. For `Cc1c(COc2cc(OCc3cncc(C#N)c3)c(CN3CCCC[C@H]3C(=O)O)cc2Cl)cccc1-c1ccc2oc(CCN3CC[C@@H](O)C3)nc2c1` [Example 1029, (S)-1-(5-chloro-2-((5-cyanopyridin-3-yl)methoxy)-4-((3-(2-(2-((R)-3-hydroxypyrrolidin-1-yl)ethyl)benzo[d]oxazol-5-yl)-2-methylbenzyl)oxy)benzyl)piperidine-2-carboxylic acid] the value was 1 to 10 nM.

For `Cc1c(COc2cc(OCc3cncc(C#N)c3)c(CNC(C)(C)C(=O)O)cc2Cl)cccc1-c1ccc2scnc2c1` [Example 1022, 2-((4-((3-(benzo[d]thiazol-5-yl)-2-methylbenzyl)oxy)-5-chloro-2-((5-cyanopyridin-3-yl)methoxy)benzyl)amino)-2-methylpropanoic acid], the IC50 is 11 to 150 nM. For `Cc1c(COc2cc(OCc3cncc(C#N)c3)c(CN[C@H](CO)C(=O)O)cc2Cl)cccc1-c1ccc2c(c1)ncn2CCN(C)C` [Example 1025, (R)-2-((5-chloro-2-((5-cyanopyridin-3-yl)methoxy)-4-((3-(1-(2-(dimethylamino)ethyl)-1H-benzo[d]imidazol-6-yl)-2-methylbenzyl)oxy)benzyl)amino)-3-hydroxypropanoic acid and (R)-2-((5-chloro-2-((5-cyanopyridin-3-yl)methoxy)-4-((3-(1-(2-(dimethylamino)ethyl)-1H-benzo[d]imidazol-5-yl)-2-methylbenzyl)oxy)benzyl)amino)-3-hydroxypropanoic acid] the value was 151 to 10000 nM; for `Cc1c(COc2cc(OCc3cncc(C#N)c3)c(CNC(C)(CO)CO)cc2Cl)cccc1-c1nccc(OCCCO)c1Cl` [Example 2004, 5-((4-chloro-5-((3-(3-chloro-4-(3-hydroxypropoxy)pyridin-2-yl)-2-methylbenzyl)oxy)-2-(((1,3-dihydroxy-2-methylpropan-2-yl)amino)methyl)phenoxy)methyl)nicotinonitrile], 1 to 10 nM.
